From patent US7410974B2, “Halogenated Quinazolinyl nitrofurans as antibacterial agents” (Ulysses Pharmaceutical Products, Inc., priority 2003, dated 2008)
Values after ≈ are worked out from the molar mass of the structure shown. Where two headings read alike, the source gives them in different places.

How the values were obtained:
S. aureus ATCC 29213 = test: MIC broth microdilution (NCCLS); type: cell-based, Staphylococcus aureus; conditions: Staphylococcus aureus, ATCC29213; S. aureus ATCC 29213; read-out: MIC
Method: (§1) Minimal Inhibitory Concentration (MIC) Determination. Bacteria (primary strain panel, TABLE 1). Susceptibility tests were performed following the recommendations from the National Committee for Clinical Standards (NCCLS). The MICs were determined by a broth microdilution technique using a final volume of 100 μl of cation-adjusted Mueller Hinton Broth (MHBCA) and a bacterial inoculum of 10^5-10^6 Colony Forming Units (CFU)/ml. The inocula were verified and precisely determined by applying 10-μl drops of 10-fold dilutions onto Triptic Soy Agar plates. The CFU were counted after an incubation of 24 h at 35° C. Any experiment showing an inoculum that was more or less than 10^5-10^6 CFU/ml was rejected. Control antibiotics and test compounds were prepared at a concentration equivalent to 2-fold the highest desired final concentration. Compounds were then diluted directly in the 96-well microtiter plates by serial 2-fold dilutions using a multichannel pipette. Microtiter plates were incubated during 24 h at 35° C. and growth was recorded by using a microtiterplate reader at 650 nm as well as by visual observation. The MIC was defined as the lowest concentration of compound yielding no visible growth. […] Fastidious bacteria. The medium used for Listeria monocytogenes, Neisseria meningitidis, and Campylobacter jejuni was MHBCA containing 2% laked horse blood. The medium used for Haemophilus influenzae and Branhamella (Moraxella) catarrhalis was HTM as recommended by the NCCLS. Cultures of these fastidious bacteria were incubated at 35° C. in a 5% CO2 atmosphere. […] The medium used for Bacteroides fragilis was Wilkins Chalgren broth and growth was allowed under an anaerobic atmosphere at 35° C. for 48 hours.

S. aureus MRSA COL = test: MIC broth microdilution (NCCLS); type: cell-based, Staphylococcus aureus; conditions: Staphylococcus aureus, MRSA, S. aureus MRSA COL; read-out: MIC
Method: as §1, with “hours. […]” for “hours.”

[1] = test system: S. epidermidis ATCC 12228; test: MIC broth microdilution (NCCLS); type: cell-based, Staphylococcus epidermidis; conditions: Staphylococcus epidermidis, ATCC12228; S. epidermidis ATCC 12228; read-out: MIC
Method: as §1

[2] = test system: S. saprophyticus ATCC 15305; test: MIC broth microdilution (NCCLS); type: cell-based, Staphylococcus saprophyticus; conditions: Staphylococcus saprophyticus, ATCC15305; S. saprophyticus ATCC 15305; read-out: MIC
Method: as §1

E. faecalis ATCC 29212 = test: MIC broth microdilution (NCCLS); type: cell-based, Enterococcus faecalis; conditions: Enterococcus faecalis, ATCC29212; E. faecalis ATCC 29212; read-out: MIC
Method: as §1

E. faecium ATCC 35667 = test: MIC broth microdilution (NCCLS); type: cell-based, Enterococcus faecium
Method: as §1

E. coli ATCC 25922 = test: MIC broth microdilution (NCCLS); type: cell-based, Escherichia coli; conditions: Escherichia coli, ATCC25922, E. coli ATCC 25922 (Reference); read-out: MIC
Method: as §1

H. influenzae ATCC 49247 [3] = test: MIC broth microdilution (NCCLS), fastidious bacteria; type: cell-based; conditions: Haemophilus influenzae, ATCC49247, HTM, 5% CO2
Method: as §1

H. influenzae ATCC 49766 [4] = test: as above; type: cell-based; conditions: Haemophilus influenzae, ATCC49766, HTM, 5% CO2
Method: as §1

B. catarrhalis ATCC 8176 [5] = test: as above; type: cell-based, Branhamella (Moraxella) catarrhalis; conditions: Moraxella catarrhalis, ATCC8176, HTM, 5% CO2
Method: as §1

E. faecium VanA = test: MIC broth microdilution, antibiotic resistant strain panel; type: cell-based; conditions: Enterococcus faecium; multi-resistant E. faecium VanA; read-out: MIC
Method: as §1
Finally, compounds were also tested against populations of various clinical strains (antibiotic resistant strain panel, TABLE 1).

H. influenzae ATCC 49766 [6] = test: Minimal Bactericidal Concentration (MBC); type: cell-based; conditions: Haemophilus influenzae, ATCC49766, 99.9% killing
Method: (§2) Minimal Bactericidal Concentration (MBC). After the microtiter plates were read for the determination of the MIC, a 10-μl sample of each clear well (at least 5 wells without visible growth) was applied onto TSA plates for viable counts determination.
(§3) Petri dishes were incubated at 35° C. for exactly 24 h and bacterial colonies were counted.

B. catarrhalis ATCC 8176 [7] = test: Minimal Bactericidal Concentration (MBC); type: cell-based, Branhamella (Moraxella) catarrhalis; conditions: Moraxella catarrhalis, ATCC8176, 99.9% killing
Method: as §2, §3

S. typhimurium ATCC14028 = test: MIC broth microdilution (NCCLS); type: cell-based, Salmonella typhimurium; conditions: Salmonella enterica
Method: as §1

A. baumannii ATCC 19606 = test: MIC broth microdilution (NCCLS); type: cell-based, Acinetobacter baumannii; conditions: Acinetobacter baumannii, ATCC19606, read-out: MIC
Method: as §1

[8] = test system: Y. enterocolytica ATCC 23715; test: MIC broth microdilution (NCCLS); type: cell-based, Yersinia enterocolytica; conditions: Yersinia, ATCC23715, read-out: MIC
Method: as §1

H. influenzae ATCC 49247 [9] = test: Minimal Bactericidal Concentration (MBC); type: cell-based; conditions: Haemophilus influenzae, ATCC49247, 99.9% killing
Method: as §2, §3

[10] = Enterococcus faecium, ATCC35667, E. faecium ATCC 35667, read-out: MIC

MIC (S. aureus ATCC 29213) [µg/mL] | MIC (S. aureus MRSA COL) [µg/mL] | MIC [1] [µg/mL] | MIC [2] [µg/mL] | MIC (E. faecalis ATCC 29212) [µg/mL] | MIC (E. faecium ATCC 35667; [10]) [µg/mL] | MIC (E. coli ATCC 25922) [µg/mL] | MIC (H. influenzae ATCC 49247 [3]) [µg/mL] | MIC (H. influenzae ATCC 49766 [4]) [µg/mL] | MIC (B. catarrhalis ATCC 8176 [5]) [µg/mL] | SMILES | MIC (E. faecium VanA) [µg/mL] | MBC (H. influenzae ATCC 49766 [6]) [µg/mL] | MBC (B. catarrhalis ATCC 8176 [7]) [µg/mL] | MIC (E. faecium ATCC 35667; E. faecium ATCC 35667) [µg/mL] | MIC (S. typhimurium ATCC14028) [µg/mL] | MIC (A. baumannii ATCC 19606) [µg/mL] | MIC [8] [µg/mL] | MBC (H. influenzae ATCC 49247 [9]) [µg/mL]
2 (≈ 3.61 µM) | 512 (≈ 923 µM) | 1 (≈ 1.8 µM) | 8 (≈ 14.4 µM) | 8 (≈ 14.4 µM) | 64 (≈ 115 µM) | 0.03 to 0.06 (≈ 0.0541 to 0.108 µM) |  |  |  | CO/N=C(\C(=O)N[C@@H]1C(=O)N2C(C(=O)O)=C(CSc3nc(=O)c(=O)[nH]n3C)CS[C@H]12)c1csc(N)n1 [Ceftriaxone] |  |  |  |  |  |  |  | 
 |  |  |  | 16 (≈ 21.4 µM) |  |  | 16 (≈ 21.4 µM) | 128 (≈ 171 µM) | 0.5 (≈ 0.668 µM) | CC[C@H]1OC(=O)[C@H](C)[C@@H](O[C@H]2C[C@@](C)(OC)[C@@H](O)[C@H](C)O2)[C@H](C)[C@@H](O[C@@H]2O[C@H](C)C[C@H](N(C)C)[C@H]2O)[C@](C)(OC)C[C@@H](C)C(=O)[C@H](C)[C@@H](O)[C@]1(C)O [Clarithromycin] | > 128 | > 128 | 1 (≈ 1.34 µM) |  |  |  |  | 
0.06 (≈ 0.156 µM) | 16 (≈ 41.7 µM) | 0.06 (≈ 0.156 µM) | 0.25 (≈ 0.652 µM) | 2 to 4 (≈ 5.22 to 10.4 µM) | 16 (≈ 41.7 µM) | 0.015 to 0.06 (≈ 0.0391 to 0.156 µM) | 0.06 (≈ 0.156 µM) | 0.03 (≈ 0.0782 µM) | 0.002 (≈ 0.00522 µM) | C[C@@H](O)[C@H]1C(=O)N2C(C(=O)O)=C(S[C@@H]3CN[C@H](C(=O)N(C)C)C3)[C@H](C)[C@H]12 [Meropenem] |  | 0.06 (≈ 0.156 µM) | 0.008 (≈ 0.0209 µM) |  |  | 2 (≈ 5.22 µM) | > 0.5 | 0.06 (≈ 0.156 µM)

SMILES | MIC (S. aureus ATCC 29213) [µg/mL] | MIC (S. aureus MRSA COL) [µg/mL] | MIC [1] [µg/mL] | MIC [2] [µg/mL] | MIC (E. faecalis ATCC 29212) [µg/mL] | MIC (E. faecium ATCC 35667; [10]) [µg/mL] | MIC (E. coli ATCC 25922) [µg/mL] | MIC (H. influenzae ATCC 49247 [3]) [µg/mL] | MIC (H. influenzae ATCC 49766 [4]) [µg/mL] | MIC (B. catarrhalis ATCC 8176 [5]) [µg/mL] | MIC (E. faecium VanA) [µg/mL] | MBC (H. influenzae ATCC 49766 [6]) [µg/mL] | MBC (B. catarrhalis ATCC 8176 [7]) [µg/mL] | MIC (E. faecium ATCC 35667; E. faecium ATCC 35667) [µg/mL] | MIC (S. typhimurium ATCC14028) [µg/mL] | MIC (A. baumannii ATCC 19606) [µg/mL] | MIC [8] [µg/mL] | MBC (H. influenzae ATCC 49247 [9]) [µg/mL]
O=C1OCCN1/N=C/c1ccc([N+](=O)[O-])o1 [Furazolidone] | 4 to 16 (≈ 17.8 to 71.1 µM) | 8 (≈ 35.5 µM) | 2 to 4 (≈ 8.88 to 17.8 µM) | 2 (≈ 8.88 µM) | 8 to 16 (≈ 35.5 to 71.1 µM) | > 128 | 1 to 2 (≈ 4.44 to 8.88 µM) |  |  |  | 64 (≈ 284 µM) |  |  | >64 | 2 (≈ 8.88 µM) | 32 (≈ 142 µM) | > 16 | 
